Assays:
Type in all cases: cell-based
type I collagen [1] = assay: Promotion of type I collagen production in normal human skin fibroblast cells (western blotting, image analysis); conditions: NFB cells, 24 hours
Experimental: (§1) Each compound was dissolved in DMSO to produce a stock solution, and an appropriate amount of each stock solution was added to a culture solution and applied to cells. By following the same procedure, a stock solution was prepared by dissolving silymarin (silymarin group manufactured by Sigma-Aldrich) in the aforementioned DMSO, and an appropriate amount of the stock solution was added to a culture solution to check the effect of adding silymarin.
(§2) Normal human skin fibroblast cells (hereinafter referred to as “NFB”), provided as CCD1059 (purchased from Dainippon Pharmaceutical), were cultured in a skin fibroblast cell culture medium (FGM manufactured by Sanko Junyaku) at 37° C. in a 5% CO2 incubator. FGM was prepared by adding a human skin fibroblast cell growth factor (1 μg/ml), insulin ([…]), gentamycin (50 μg/ml) and amphotericin B (50 μg/ml) to a base fibroblast cell culture medium. This test used cells whose passage number was 3 to 7. […]
(§3) Protein in the sample was separated by SDS-PAGE and transferred to a nitrocellulose membrane. […] The obtained substance was washed, and then detected using ECL plus western blotting detection reagent (manufactured by Amersham Biosciences). The detected band was scanned using an image scanner (manufactured by Amersham Biosciences) and analyzed using image master software to produce numerical data.

elastin [2] = assay: Promotion of elastin production in a three-dimensional human skin model (TESTSKIN LSE-high); conditions: concentration 0.05% in dipropylene glycol, 2 x 24 hours
Description: (§4) Three-dimensional human skin models are widely used in safety evaluations and effectiveness evaluations as pseudo human skins. In this evaluation, TESTSKIN (LSE-high) (manufactured by Toyobo) was used as a three-dimensional human skin model, and cultured in accordance with the protocol specified in the attached document. Silybum marianum extract containing 70% silymarin (manufactured by Indina), soybean lecithin (manufactured by Wako Pure Chemical Industries) and retinoic acid (all-trans-retinoic acid manufactured by Wako Pure Chemical Industries) were dissolved to respective concentrations in dipropylene glycol (manufactured by Wako Pure Chemical Industries). […]
(§5) Next, 60 μl of each tested substance was added to tissues in an assay ring and the tissues were cultured for 24 hours. […] Protein in the sample was determined using a DC protein assay kit (manufactured by Bio-Rad Laboratories) based on the Lowry method (Non-patent Literature 11), and 20 mM Tris-HCl (pH 7.5) was added to achieve 2 μg/μl. […]
In the same manner as described in the aforementioned evaluation of the property to promote type I collagen production in a three-dimensional human skin model, the property to promote elastin production was evaluated using a three-dimensional human skin model.

type I collagen [3] = assay: Promotion of type I collagen production in a three-dimensional human skin model (TESTSKIN LSE-high); conditions: concentration 0.05% in dipropylene glycol, 2 x 24 hours
Description: as §4, §5
The obtained sample was used to evaluate the property to promote type I collagen production using the western blotting method. […] The obtained substance was washed, and then detected using ECL plus western blotting detection reagent (manufactured by Amersham Biosciences). […]

elastin [4] = assay: Promotion of elastin production in normal human skin fibroblast cells (western blotting, image analysis); conditions: NFB cells, 24 hours
Experimental: as §1, §2, §3

SMILES: CC1=C(/C=C/C(C)=C/C=C/C(C)=C/C(=O)O)C(C)(C)CCC1 [Retinoic acid, all-trans-retinoic acid]
- Ratio to untreated control (full-length type I collagen) (type I collagen [1]; treated concentration 250 nM): 2.0
- Ratio to untreated control (full-length type I collagen) (type I collagen [1]; treated concentration 500 nM): 1.4
- Relative expression level (full-length elastin) (elastin [2]): 3.3
- Relative expression level (full-length type I collagen) (type I collagen [3]): 2.0
- Ratio to untreated control (full-length elastin) (elastin [4]; treated concentration 250 nM): 2.8
- Ratio to untreated control (full-length elastin) (elastin [4]; treated concentration 500 nM): 1.4

Reference: patent US20060233738A1, “Composition for promoting production of type 1 collagen and/or elastin” (priority 2003, published 2006)
